Patent US10792289B2 (Horizon Orphan LLC, priority 2009, dated 2020)
Read-outs that look alike come from different tables or passages of the source.

System: P. aeruginosa isolates
Assay: Phase 2 study: MIC of P. aeruginosa isolates to levofloxacin
Type: cell-based
Settings: Pseudomonas aeruginosa
Method: Efficacy was evaluated by microbiologic assessment of sputum samples, time to need for anti-pseudomonal antimicrobials, the Cystic Fibrosis Questionaire-Revised (CFQ-R), and pulmonary function tests. […] Pair-wise comparisons between all the treatment arms were conducted as secondary analyses.

`C[C@H]1COc2c(N3CCN(C)CC3)c(F)cc3c(=O)c(C(=O)O)cn1c23` [Levofloxacin, levofloxacin] was tested, and the MIC50 (336 h, MITT, combined 240 mg QD and BID, Day 14, read-out: MIC50 (all organisms)) was 4 µg/mL, the MIC90 (336 h, MITT, combined 240 mg QD and BID, Day 14, read-out: MIC90 (all organisms)) was 16 µg/mL and the MIC50 (336 h, Table 14, EE, 120 mg QD, Day 14, read-out: MIC50 (all organisms)) was 8 µg/mL. It also gave an MIC90 (336 h, Table 14, EE, 120 mg QD, Day 14, read-out: MIC90 (all organisms)) of 32 µg/mL, an MIC50 (336 h, Table 14, EE, 240 mg BID, Day 14, read-out: MIC50 (all organisms)) of 4 µg/mL and an MIC90 (336 h, Table 14, EE, 240 mg BID, Day 14, read-out: MIC90 (all organisms)) of 32 µg/mL. For the same compound, the MIC50 (336 h, Table 14, EE, 240 mg QD, Day 14, read-out: MIC50 (all organisms)) was 8 µg/mL, the MIC90 (336 h, Table 14, EE, 240 mg QD, Day 14, read-out: MIC90 (all organisms)) was 16 µg/mL and the MIC (336 h, read-out: Highest MIC to levofloxacin, mean (SD), MITT, 120 mg QD, Day 14) was 20.3 µg/mL. The MIC (336 h, read-out: Highest MIC to levofloxacin, mean (SD), MITT, 240 mg BID, Day 14) was 14.9 µg/mL, the MIC (336 h, read-out: Highest MIC to levofloxacin, mean (SD), MITT, 240 mg QD, Day 14) was 9.28 µg/mL and the MIC (336 h, read-out: Highest MIC to levofloxacin, mean (SD), MITT, combined 240 mg QD and BID, Day 14) was 12.1 µg/mL. The MIC (336 h, read-out: MIC to levofloxacin (all organisms), mean (SD), EE, 120 mg QD, Day 14) was 13 µg/mL, the MIC (336 h, read-out: MIC to levofloxacin (all organisms), mean (SD), EE, 240 mg BID, Day 14) was 8.4 µg/mL and the MIC (336 h, read-out: MIC to levofloxacin (all organisms), mean (SD), EE, 240 mg QD, Day 14) was 6.6 µg/mL. The MIC (336 h, read-out: MIC to levofloxacin (all organisms), mean (SD), EE, combined 240 mg QD and BID, Day 14) was 7.5 µg/mL, the MIC (336 h, read-out: MIC to levofloxacin (all organisms), mean (SD), MITT, 120 mg QD, Day 14) was 12.9 µg/mL and the MIC (336 h, read-out: MIC to levofloxacin (all organisms), mean (SD), MITT, 240 mg BID, Day 14) was 8.2 µg/mL. For the same compound, the MIC (336 h, read-out: MIC to levofloxacin (all organisms), mean (SD), MITT, 240 mg QD, Day 14) was 6.5 µg/mL, the MIC (336 h, read-out: MIC to levofloxacin (all organisms), mean (SD), MITT, combined 240 mg QD and BID, Day 14) was 7.3 µg/mL and the MIC (336 h, read-out: MIC to levofloxacin (all organisms), mean (SD), Table 14, EE, 120 mg QD, Day 14) was 21.2 µg/mL. For the same compound, the MIC (336 h, read-out: MIC to levofloxacin (all organisms), mean (SD), Table 14, EE, 240 mg BID, Day 14) was 15.2 µg/mL, the MIC (336 h, read-out: MIC to levofloxacin (all organisms), mean (SD), Table 14, EE, 240 mg QD, Day 14) was 9.56 µg/mL and the MIC (336 h, read-out: MIC to levofloxacin (all organisms), mean (SD), Table 14, EE, combined 240 mg QD and BID, Day 14) was 12.3 µg/mL. The MIC50 (672 h, EE and MITT, 120 mg QD, Day 28, read-out: MIC50 for P. aeruginosa isolates) was 8 µg/mL, the MIC90 (672 h, EE and MITT, 120 mg QD, Day 28, read-out: MIC90 for P. aeruginosa isolates) was 32 µg/mL and the MIC50 (672 h, EE and MITT, 240 mg BID, Day 28, read-out: MIC50 for P. aeruginosa isolates) was 8 µg/mL. It also gave an MIC90 (672 h, EE and MITT, 240 mg BID, Day 28, read-out: MIC90 for P. aeruginosa isolates) of 32 µg/mL, an MIC50 (672 h, EE and MITT, 240 mg QD, Day 28, read-out: MIC50 for P. aeruginosa isolates) of 8 µg/mL and an MIC90 (672 h, EE and MITT, 240 mg QD, Day 28, read-out: MIC90 for P. aeruginosa isolates) of 16 µg/mL. For the same compound, the MIC50 (672 h, EE, 120 mg QD, Day 28, read-out: MIC50 (all organisms)) was 4 µg/mL, the MIC90 (672 h, EE, 120 mg QD, Day 28, read-out: MIC90 (all organisms)) was 16 µg/mL and the MIC50 (672 h, EE, 240 mg BID, Day 28, read-out: MIC50 (all organisms)) was 4 µg/mL. The MIC90 (672 h, EE, 240 mg BID, Day 28, read-out: MIC90 (all organisms)) was 32 µg/mL, the MIC50 (672 h, EE, 240 mg QD, Day 28, read-out: MIC50 (all organisms)) was 4 µg/mL and the MIC90 (672 h, EE, 240 mg QD, Day 28, read-out: MIC90 (all organisms)) was 16 µg/mL. It also gave an MIC50 (672 h, EE, combined 240 mg QD and BID, Day 28, read-out: MIC50 (all organisms)) of 4 µg/mL, an MIC90 (672 h, EE, combined 240 mg QD and BID, Day 28, read-out: MIC90 (all organisms)) of 16 µg/mL and an MIC50 (672 h, MITT, 120 mg QD, Day 28, read-out: Highest MIC, MIC50) of 8 µg/mL. The MIC90 (672 h, MITT, 120 mg QD, Day 28, read-out: Highest MIC, MIC90) was 32 µg/mL, the MIC50 (672 h, MITT, 120 mg QD, Day 28, read-out: MIC50 (all organisms)) was 4 µg/mL and the MIC90 (672 h, MITT, 120 mg QD, Day 28, read-out: MIC90 (all organisms)) was 16 µg/mL. For the same compound, the MIC50 (672 h, MITT, 240 mg BID, Day 28, read-out: Highest MIC, MIC50) was 8 µg/mL, the MIC90 (672 h, MITT, 240 mg BID, Day 28, read-out: Highest MIC, MIC90) was 16 µg/mL and the MIC50 (672 h, MITT, 240 mg BID, Day 28, read-out: MIC50 (all organisms)) was 4 µg/mL. It also gave an MIC90 (672 h, MITT, 240 mg BID, Day 28, read-out: MIC90 (all organisms)) of 32 µg/mL, an MIC50 (672 h, MITT, 240 mg QD, Day 28, read-out: Highest MIC, MIC50) of 8 µg/mL and an MIC90 (672 h, MITT, 240 mg QD, Day 28, read-out: Highest MIC, MIC90) of 16 µg/mL. For the same compound, the MIC50 (672 h, MITT, 240 mg QD, Day 28, read-out: MIC50 (all organisms)) was 4 µg/mL, the MIC90 (672 h, MITT, 240 mg QD, Day 28, read-out: MIC90 (all organisms)) was 16 µg/mL and the MIC50 (672 h, MITT, combined 240 mg QD and BID, Day 28, read-out: Highest MIC, MIC50) was 8 µg/mL.
